Patent US20160038485A1, “PHASE 2 INDUCERS AND RELATED SIGNALING PATHWAYS PROTECT CARTILAGE AGAINST INFLAMMATION, APOPTOSIS AND STRESS” (THE JOHNS HOPKINS UNIVERSITY, priority 2006, published 2016)

Test system: phase 2 genes
Test: not given
Conditions: cited from earlier work

Structure (SMILES) | CD [µM]
CS(=O)(=O)[C@H]1CC[C@@H](N=C=S)CC1 [GHF 1073] | 0.44
CSCCCCCN=C=S [GHP 1001] | 1.71
C[S+]([O-])CCCCCN=C=S (stereo not drawn) [GHP 1002] | 0.94
CS(=O)(=O)CCCCCN=C=S [GHP 1003] | 0.98
C[S+]([O-])CCCCN=C=S (stereo not drawn) [GHP 1005] | 0.20
CS(=O)(=O)CCCCN=C=S [GHP 1007] | 0.82
CSCCCN=C=S [GHP 1008] | 3.52
C[S+]([O-])CCCN=C=S (stereo not drawn) [GHP 1009] | 2.36
CS(=O)(=O)CCCN=C=S [GHP 1010] | 1.32
CSCc1ccccc1CN=C=S [GHP 1021] | 4.3
CSc1ccccc1CCN=C=S [GHP 1022] | 7.4
CSCCc1ccccc1N=C=S [GHP 1023] | 100
COc1ccccc1N=C=S [GHP 1031] | 100
S=C=Nc1ccccc1Cl [GHP 1032] | 100
O=CNc1ccc(N=C=S)cc1 [GHP 1033] | 100
COc1ccccc1CN=C=S [GHP 1041] | 2.41
COc1cccc(CN=C=S)c1 [GHP 1042] | 8.65
COc1ccc(CN=C=S)cc1 [GHP 1043] | 25
COc1cccc(OC)c1CN=C=S [GHP 1044] | 5.8
CN(C)c1ccccc1CN=C=S [GHP 1045] | 12.5
CSc1ccccc1CN=C=S [GHP 1046] | 6.8
Fc1ccccc1CN=C=S [GHP 1047] | 13.1
S=C=NCc1ccccc1Cl [GHP 1048] | 14.1
S=C=NCc1ccccc1Br [GHP 1049] | 12.5
Cc1ccccc1CN=C=S [GHP 1050] | 3.7
CCOc1ccccc1CN=C=S [GHP 1051] | 2.5

Structure (SMILES) | CD [µM]
S=C=NC1CCc2ccccc21 (stereo not drawn) [GHP 1052] | 38.9
CCc1ccccc1CN=C=S [GHP 1053] | 12.5
CCOC(=O)CN=C=S [GHP 1061] | 8.2
CS(=O)(=O)C1CC2CC1CC2N=C=S (stereo not drawn) [GHP 1064] | 0.66
CC(=O)C1CC2CC(N=C=S)C1C2 (stereo not drawn) [GHP 1066] | 0.26
CC(=O)C1CC2CC1CC2N=C=S (stereo not drawn) [GHP 1067] | 0.43
CS(=O)(=O)C1CC2CC(N=C=S)C1C2 (stereo not drawn) [GHP 1068] | 0.15
COC(=O)C1CC2CC(N=C=S)C1C2 (stereo not drawn) [GHP 1069] | 0.68
COC(=O)C1CC2CC(N=C=S)C1C2 (stereo not drawn) [GHP 1070] | 1.6
N#CC1CC2CC1CC2N=C=S (stereo not drawn) [GHP 1071] | 0.59
O=[N+]([O-])C1CC2CC1CC2N=C=S (stereo not drawn) [GHP 1072] | 1.05
CCOC(=O)C(CCSC)N=C=S (stereo not drawn) [GHP 1074] | 2.64
CC(O)C1CC2CC1CC2N=C=S (stereo not drawn) [GHP 1075] | 0.45
OC1CC2CC(N=C=S)C1C2 (stereo not drawn) [GHP 1076] | 1.10
OC1CC2CC1CC2N=C=S (stereo not drawn) [GHP 1077] | 1.85
CP(C)(=O)CCCCN=C=S [GHP 1078] | 0.43
CS(=O)(=O)[C@H]1CCC[C@H](CN=C=S)C1 [GHP 1079] | 0.48
CS(=O)(=O)[C@H]1CCC[C@@H](CN=C=S)C1 [GHP 1080] | 0.41
CCCCC(=O)CCCCN=C=S [GHP 1081] | 2.0
N#CCCCCN=C=S [GHP 1101] | 1.97
COC(=O)CCCCN=C=S [GHP 1102] | 2.81
O=C(O)CCCCN=C=S [GHP 1103] | 2.19
CSC(=O)CCCCN=C=S [GHP 1104] | 2.8
CC(=O)CCCCN=C=S [GHP 1105] | 0.23
CC(O)CCCCN=C=S (stereo not drawn) [GHP 1106] | 0.35

Test system: T/C28a2 chondrocytic cells
Test: DNA microarray analysis of shear-induced mRNA response of chondrocytes
Type: cell-based, human
Conditions: Wy14643 10 μM; 20 dyn/cm^2, 48 hours; cDNA microarray
Description: (§1) Cell Culture and Shear Stress Exposure: Human T/C28a2 chondrocytic cells were grown (37° C., 5% CO2) in 1:1 Ham's F-12/DMEM (Biowhittaker) supplemented with 10% FBS. Prior to shear exposure, T/C28a2 cells were incubated for 24 hours in serum-free medium containing 1% Nutridoma-SP (Roche), a low-protein serum replacement that maintains chondrocyte phenotype. Primary HUVECs were cultured as described (Goldring, M. B., 2004). T/C28a2 cells were exposed to shear stress in media containing 1% Nutridoma by use of a parallel-plate flow chamber with a recirculating flow loop (37° C., 5% CO2) (10). HUVECs were treated similarly by circulating media supplemented with 10% FBS.
Microarray Hybridization and Analysis: Cy-3- and Cy-5-labeled probes were mixed, dried, resuspended in hybridization buffer (50% formamide, 10×SSC, 0.2% SDS, COT-I DNA, Poly(A)-DNA), and denatured. The probes were added to microarray slides printed with a set of 32,448 or 39,936 expressed sequence tags (ESTs), allowed to hybridize at 42° C. overnight, and processed as described (Abulencia, J. P., et al. 2003. Hegde, P. et al. 2000). Expression ratios were derived using TIGR Spotfinder (Abulencia, J. P. et al. 2003, Hegde, P. et al. 2000). Differentially expressed genes were identified by Significance Analysis of Microarrays, and analyzed with the software TMEV (Abulencia, J. P. et al. 2003).
(§2) Quantitative Real-Time PCR (qRT-PCR) was used to verify DNA microarray data. Incorporation of SYBR Green into PCR products was monitored with the 7900HT detection system.

Structure (SMILES) | shear-mediated up-regulation of JNK2 mRNA levels | shear-mediated up-regulation of c-Jun mRNA levels
Cc1cccc(Nc2cc(Cl)nc(SCC(=O)O)n2)c1C [Wy14643] | nearly abrogates | nearly abrogates

Test system: NQO1
Test: NQO1 enzyme activity in shear-activated chondrocytes
Type: cell-based, human
Conditions: T/C28a2, high shear (20 dyn/cm^2); SFN 1.25 μM, D3T 5 μM, CAY10404 6.75 μM, NS398 30 μM
Description: as §1
(§3) Cell Viability, NQO1 activity, Glutathione levels, and Prostaglandin (PG)E2 production: Cell viability was monitored with the MTT assay (Gao, X. et al. 2001). NQO1 activity and total GSH (oxidized and reduced) levels of cell lysates were determined in 96-well microtiter plates. PGE2 levels were determined in media by the Prostaglandin E2 monoclonal EIA kit (Cayman Chemical).

Structure (SMILES) | shear-induced suppression of NQO1 activity
CS(=O)(=O)c1ccc(-c2noc(C(F)(F)F)c2-c2ccccc2)cc1 [CAY10404] | reduced the shear-induced down-regulation
CS(=O)(=O)Nc1ccc([N+](=O)[O-])cc1OC1CCCCC1 [NS398] | indistinguishable from those with CAY10404
C[S@@+]([O-])CCCCN=C=S [SFN, (−)-1-isothiocyanato-4(R)-(methylsulfinyl)-butane] | abolished

Test system: T/C28a2 cells
Test: Shear-induced apoptosis: DNA fragmentation (TUNEL) and mitochondrial membrane depolarization
Type: cell-based, human
Conditions: 20 dyn/cm^2, 48 h; D3T 5 μM, CAY10404 6.75 μM, NS398 30 μM
Description: as §1
DNA Fragmentation and Mitochondrial Depolarization: For DNA fragmentation, cells were fixed in 4% paraformaldehyde for 1 hour at 25° C., washed 2× in PBS, and permeabilized briefly in 0.1% Triton-X100/0.1% sodium citrate on ice. Subsequently, cells were washed 2× in PBS, labeled using the In Situ Cell Death Kit (Roche), and analyzed by flow cytometry. To quantify Mitochondrial Membrane Potential (MMP), cells were labeled using the MitoProbe JC-I Kit (Molecular Probes).

Structure (SMILES) | shear-induced apoptosis (DNA fragmentation TUNEL, mitochondrial membrane depolarization MMP)
CS(=O)(=O)c1ccc(-c2noc(C(F)(F)F)c2-c2ccccc2)cc1 [CAY10404] | marked reduction
CS(=O)(=O)Nc1ccc([N+](=O)[O-])cc1OC1CCCCC1 [NS398] | marked reduction

Test system: ARE-driven NQO1 promoter
Test: Promoter activity assay (pNQO1/ARE-luc)
Type: cell-based, human
Conditions: transfected T/C28a2 cells; SFN 1.25 μM or D3T 5 μM, 24 h, static conditions
Description: Transient Transfection and Plasmid Constructs: T/C28a2 cells were transfected with 10 μg of plasmid and 2 μg of control with Lipofectamine and Plus Reagent (Invitrogen). Cells were allowed to recover for 3 hours, incubated overnight in medium containing 1% Nutridoma, and exposed to the indicated treatments. Efficiency was assessed by flow cytometry with pEGFP-N2 (BD Biosciences). pCMV-mNrf2 and pNQO1/ARE-luc constructs were provided by N. Wakabayashi (Wakabayashi, N. et al. 2004). Igarashi, K., et al. 1994), and pBJ M-pl 10*-myc, pBJ M<<pl 10-UR, and pCG pi 10 wt constructs were provided by A. Kippel (Hu, Q., et al. 1995).
Promoter Activity Assay: T/C28a2 cells were transfected with 10 μg of pNQO1/ARE-luc and 1 μg each of pEGFP-N2 and pSV40-hRL2 (Promega) to normalize transfection efficiency. Firefly and Renilla luciferase activities were measured using the Dual-Luciferase Report Assay kit (Promega).

ARE-driven NQO1 promoter luciferase activity | Structure (SMILES)
increases the luciferase activity | C[S@@+]([O-])CCCCN=C=S [SFN, (−)-1-isothiocyanato-4(R)-(methylsulfinyl)-butane]

Test system: T/C28a2 cells
Test: Total glutathione (GSH) levels in shear-activated chondrocytes
Type: cell-based, human
Conditions: T/C28a2, high shear (20 dyn/cm^2); SFN 1.25 μM, CAY10404 6.75 μM, NS398 30 μM
Description: as §1, §3

Structure (SMILES) | shear-induced suppression of intracellular GSH levels
CS(=O)(=O)c1ccc(-c2noc(C(F)(F)F)c2-c2ccccc2)cc1 [CAY10404] | reduced the shear-induced down-regulation
CS(=O)(=O)Nc1ccc([N+](=O)[O-])cc1OC1CCCCC1 [NS398] | indistinguishable from those with CAY10404
C[S@@+]([O-])CCCCN=C=S [SFN, (−)-1-isothiocyanato-4(R)-(methylsulfinyl)-butane] | abolished

Test system: T/C-28a2 cells
Test: qRT-PCR transcript ratios (shear/static) in chondrocytes
Type: cell-based, human
Conditions: Wy14643 10 μM pre-treatment; 20 dyn/cm^2, 48 h; mean + range (n = 2)
Description: as §1, §2
Cell Culture and shear stress exposure, microarray hybridization and analysis and quantitative real-time PCR (qRT-PCR) were carried out as in example 1. T/C-28a2 chondrocytes were pre-treated with a specific PPARα ligand, Wy14643 (10 μM) for 2 hours before being subjected to a shear stress level of 20 dyn/cm^2 for 48 hours in the presence of Wy14643. This pharmacological intervention abolished the shear-induced down regulation of the mRNA levels of Nrf2 and phase 2 genes and apoptosis as evidenced by the abrogation of shear-mediated changes of Bcl-w and pro-caspase-9 mRNA expression.

Structure (SMILES) | Bcl-w (Bcl-2-like protein 2) qRT-PCR Transcript Ratio (Shear/Static) | COX-2 (cyclooxygenase-2) qRT-PCR Transcript Ratio (Shear/Static) | Caspase-9 precursor qRT-PCR Transcript Ratio (Shear/Static) | GCLR (glutamate-cysteine ligase) qRT-PCR Transcript Ratio (Shear/Static) | GST μ1 (glutathione-S-transferase class μ1) qRT-PCR Transcript Ratio (Shear/Static) | MMP-9 (matrix metalloproteinase-9) qRT-PCR Transcript Ratio (Shear/Static) | NQO1 (NAD(P)H:quinone oxidoreductase-1) qRT-PCR Transcript Ratio (Shear/Static) | Nrf2 (NF-E2 related factor 2) qRT-PCR Transcript Ratio (Shear/Static) | PGE2 Receptor Subtype EP4 qRT-PCR Transcript Ratio (Shear/Static) | PPARα qRT-PCR Transcript Ratio (Shear/Static)
Cc1cccc(Nc2cc(Cl)nc(SCC(=O)O)n2)c1C [Wy14643] | 1.0 ± 0.1 | 1.3 ± 0.2 | 1.0 ± 0.1 | 1.2 ± 0.2 | 1.3 ± 0.2 | 1.3 ± 0.1 | 1.0 ± 0.1 | 1.6 ± 0.1 | 0.6 ± 0.1 | 1.1 ± 0.2

Same assay, conditions: Wy14643 10 μM pre-treatment; 20 dyn/cm^2, 48 h; mean + range (n = 2)

Structure (SMILES) | iNOS (inducible Nitric Oxide Synthase II) qRT-PCR Transcript Ratio (Shear/Static)
Cc1cccc(Nc2cc(Cl)nc(SCC(=O)O)n2)c1C [Wy14643] | 1.0 ± 0.2

Same assay, conditions: Wy14643 10 μM, 2 hours before and during 20 dyn/cm^2, 48 hours

Structure (SMILES) | shear-induced down regulation of the mRNA levels of Nrf2 and phase 2 genes
Cc1cccc(Nc2cc(Cl)nc(SCC(=O)O)n2)c1C [Wy14643] | abolished

Same assay, conditions: Wy14643 10 μM; 20 dyn/cm^2, 48 hours

Structure (SMILES) | shear-mediated changes of Bcl-w and pro-caspase-9 mRNA expression (apoptosis)
Cc1cccc(Nc2cc(Cl)nc(SCC(=O)O)n2)c1C [Wy14643] | abrogation
